We go through 9 compounds from ChEMBL document CHEMBL1697781, “Assessment of the health effects of chemicals in humans: II. Construction of an adverse effects database for QSAR modeling” (Curr Drug Discov Technol, 2004).

Holding throughout (details): human
In data set [1] the test system is Hepatotoxicity. The data set can be described thus: FDA HLAED, serum glutamic pyruvic transaminase (SGPT) increase.
Data set [2] deals with Hepatotoxicity. Description: FDA HLAED, liver enzyme composite activity.
In data set [3] the test system is Hepatotoxicity. The data set can be described thus: FDA HLAED, gamma-glutamyl transferase (GGT) increase.
The subject of data set [4] is Hepatotoxicity. The data set can be described thus: FDA HLAED, alkaline phosphatase increase.
Data set [5] has as its system Hepatotoxicity. The data set can be described thus: FDA HLAED, lactate dehydrogenase (LDH) increase.
Data set [6] deals with Hepatotoxicity. The data set can be described thus: FDA HLAED, serum glutamic oxaloacetic transaminase (SGOT) increase.
Wherever GGT Increase - Index Value is given: reference of the scale not given here.
Wherever LDH Increase - Index Value is given: reference of the scale not given here.

Turning to `Cc1ccc(Cl)c(Nc2ccccc2C(=O)O)c1Cl` [MECLOFENAMIC ACID], in the data set on Hepatotoxicity [1], the “SGPT Increase - Activity Score” value is “Inactive”, the “SGPT Increase - Index Value” turned out to be 0 and the “SGPT Increase - Number of Reports” value is under 4. In the data set on Hepatotoxicity [2], the “Composite Activity - Active” value amounted to 0, the “Composite Activity - Marginal” value was determined as 0 and the “Composite Activity - Score” value was “Inactive”. Further, in the data set on Hepatotoxicity [3], the “GGT Increase - Activity Score” value is reported as “Inactive”, the “GGT Increase - Index Value” turned out to be 0 and the “GGT Increase - Number of Reports” value was under 4. In the data set on Hepatotoxicity [4], the “Alkaline Phosphatase Increase - Activity Score” value is “Inactive”, the “Alkaline Phosphatase Increase - Index Value” is reported as 0 and the “Alkaline Phosphatase Increase - Number of Reports” value is listed as under 4. In the data set with Hepatotoxicity [5], the “LDH Increase - Activity Score” value is on record as “Inactive”, the “LDH Increase - Index Value” came out at 0 and the “LDH Increase - Number of Reports” value is listed as under 4. Moreover, in the data set with Hepatotoxicity [6], the “SGOT Increase - Activity Score” value is reported as “Inactive”, the “SGOT Increase - Index Value” was 0 and the “SGOT Increase - Number of Reports” value was under 4.

Regarding `OC(c1cc(C(F)(F)F)nc2c(C(F)(F)F)cccc12)C1CCCCN1` (configuration not stated) [MEFLOQUINE], in the data set with Hepatotoxicity [1], the “SGPT Increase - Activity Score” value is listed as “Active”, the “SGPT Increase - Index Value” worked out at 32.5 and the “SGPT Increase - Number of Reports” value is listed as “>= 4”. Moreover, in the data set with Hepatotoxicity [2], the “Composite Activity - Active” value was found to be 3, the “Composite Activity - Marginal” value was 0 and the “Composite Activity - Score” value is on record as “Active”. In addition, in the data set with Hepatotoxicity [3], the “GGT Increase - Activity Score” value was “Active”, the “GGT Increase - Index Value” is on record as 18 and the “GGT Increase - Number of Reports” value was “>= 4”. In addition, in the data set with Hepatotoxicity [4], the “Alkaline Phosphatase Increase - Activity Score” value was “Inactive”, the “Alkaline Phosphatase Increase - Index Value” was 7.2 and the “Alkaline Phosphatase Increase - Number of Reports” value is under 4. In addition, in the data set with Hepatotoxicity [5], the “LDH Increase - Activity Score” value is listed as “Inactive”, the “LDH Increase - Index Value” amounted to 0 and the “LDH Increase - Number of Reports” value is given as under 4. In the data set on Hepatotoxicity [6], the “SGOT Increase - Activity Score” value is “Active”, the “SGOT Increase - Index Value” turned out to be 25.3 and the “SGOT Increase - Number of Reports” value is “>= 4”.

`C[C@@H](O)[C@H]1C(=O)N2C(C(=O)O)=C(S[C@@H]3CN[C@H](C(=O)N(C)C)C3)[C@H](C)[C@H]12` [MEROPENEM]: in the data set on Hepatotoxicity [1], the “SGPT Increase - Activity Score” value is “Active”, the “SGPT Increase - Index Value” amounted to 50.8 and the “SGPT Increase - Number of Reports” value is given as under 4. In the data set on Hepatotoxicity [2], the “Composite Activity - Active” value was 2, the “Composite Activity - Marginal” value was found to be 1 and the “Composite Activity - Score” value was “Active”. Further, in the data set with Hepatotoxicity [3], the “GGT Increase - Activity Score” value is reported as “Inactive”, the “GGT Increase - Index Value” came to 0 and the “GGT Increase - Number of Reports” value was under 4. In addition, in the data set on Hepatotoxicity [4], the “Alkaline Phosphatase Increase - Activity Score” value is on record as “Inactive”, the “Alkaline Phosphatase Increase - Index Value” is reported as 0 and the “Alkaline Phosphatase Increase - Number of Reports” value is under 4. For the same compound, in the data set on Hepatotoxicity [5], the “LDH Increase - Activity Score” value is given as “Marginally Active”, the “LDH Increase - Index Value” was found to be 33.8 and the “LDH Increase - Number of Reports” value is under 4. Further, in the data set on Hepatotoxicity [6], the “SGOT Increase - Activity Score” value is on record as “Active”, the “SGOT Increase - Index Value” came out at 50.8 and the “SGOT Increase - Number of Reports” value was under 4.

Take `Nc1ccc(O)c(C(=O)O)c1` [MESALAMINE]: in the data set with Hepatotoxicity [1], the “SGPT Increase - Activity Score” value is recorded as “Inactive”, the “SGPT Increase - Index Value” is 1.8 and the “SGPT Increase - Number of Reports” value was “>= 4”. Besides, in the data set on Hepatotoxicity [2], the “Composite Activity - Active” value is listed as 0, the “Composite Activity - Marginal” value came out at 0 and the “Composite Activity - Score” value was “Inactive”. In addition, in the data set on Hepatotoxicity [3], the “GGT Increase - Activity Score” value was “Inactive”, the “GGT Increase - Index Value” turned out to be 1.5 and the “GGT Increase - Number of Reports” value is on record as “>= 4”. In addition, in the data set on Hepatotoxicity [4], the “Alkaline Phosphatase Increase - Activity Score” value is “Inactive”, the “Alkaline Phosphatase Increase - Index Value” is given as 1.3 and the “Alkaline Phosphatase Increase - Number of Reports” value is “>= 4”. Besides, in the data set with Hepatotoxicity [5], the “LDH Increase - Activity Score” value is “Inactive”, the “LDH Increase - Index Value” was 1.1 and the “LDH Increase - Number of Reports” value was “>= 4”. In the data set with Hepatotoxicity [6], the “SGOT Increase - Activity Score” value was “Inactive”, the “SGOT Increase - Index Value” was 2.2 and the “SGOT Increase - Number of Reports” value is listed as “>= 4”.

For `O=S(=O)([O-])CCS.[Na+]` [MESNA], in the data set with Hepatotoxicity [1], the “SGPT Increase - Activity Score” value was “Inactive”, the “SGPT Increase - Index Value” is 0 and the “SGPT Increase - Number of Reports” value is given as under 4. In the data set with Hepatotoxicity [2], the “Composite Activity - Active” value is given as 0, the “Composite Activity - Marginal” value is reported as 0 and the “Composite Activity - Score” value is “Inactive”. In the data set with Hepatotoxicity [3], the “GGT Increase - Activity Score” value was “Inactive”, the “GGT Increase - Index Value” worked out at 0 and the “GGT Increase - Number of Reports” value is given as under 4. In addition, in the data set on Hepatotoxicity [4], the “Alkaline Phosphatase Increase - Activity Score” value is on record as “Inactive”, the “Alkaline Phosphatase Increase - Index Value” worked out at 0 and the “Alkaline Phosphatase Increase - Number of Reports” value is under 4. Besides, in the data set with Hepatotoxicity [5], the “LDH Increase - Activity Score” value is reported as “Inactive”, the “LDH Increase - Index Value” is recorded as 5 and the “LDH Increase - Number of Reports” value is on record as under 4. Besides, in the data set with Hepatotoxicity [6], the “SGOT Increase - Activity Score” value is on record as “Inactive”, the “SGOT Increase - Index Value” was found to be 5 and the “SGOT Increase - Number of Reports” value is under 4.

With `CN(C)C(=N)N=C(N)N` [METFORMIN], in the data set with Hepatotoxicity [1], the “SGPT Increase - Activity Score” value was “Inactive”, the “SGPT Increase - Index Value” was 0 and the “SGPT Increase - Number of Reports” value is under 4. In the data set with Hepatotoxicity [2] (Liver), the “Composite Activity - Active” value worked out at 0, the “Composite Activity - Marginal” value came to 0 and the “Composite Activity - Score” value is “Inactive”. For the same compound, in the data set on Hepatotoxicity [3], the “GGT Increase - Activity Score” value is on record as “Inactive”, the “GGT Increase - Index Value” turned out to be 0 and the “GGT Increase - Number of Reports” value was under 4. Besides, in the data set with Hepatotoxicity [4], the “Alkaline Phosphatase Increase - Activity Score” value is “Inactive”, the “Alkaline Phosphatase Increase - Index Value” turned out to be 0 and the “Alkaline Phosphatase Increase - Number of Reports” value is listed as under 4. In addition, in the data set with Hepatotoxicity [5], the “LDH Increase - Activity Score” value is on record as “Inactive”, the “LDH Increase - Index Value” was 0 and the “LDH Increase - Number of Reports” value is on record as under 4. Further, in the data set on Hepatotoxicity [6], the “SGOT Increase - Activity Score” value was “Inactive”, the “SGOT Increase - Index Value” came out at 0 and the “SGOT Increase - Number of Reports” value was under 4.

As for `CC(=O)Oc1c(C)cc(OCC(O)CNC(C)C)c(C)c1C` (configuration not stated) [METIPRANOLOL], in the data set on Hepatotoxicity [1], the “SGPT Increase - Activity Score” value is “Inactive”, the “SGPT Increase - Index Value” turned out to be 0 and the “SGPT Increase - Number of Reports” value is under 4. Besides, in the data set on Hepatotoxicity [2], the “Composite Activity - Active” value is listed as 0, the “Composite Activity - Marginal” value came to 0 and the “Composite Activity - Score” value is reported as “Inactive”. Also, in the data set on Hepatotoxicity [3], the “GGT Increase - Activity Score” value is “Inactive”, the “GGT Increase - Index Value” amounted to 0 and the “GGT Increase - Number of Reports” value is recorded as under 4. In the data set with Hepatotoxicity [4], the “Alkaline Phosphatase Increase - Activity Score” value is “Inactive”, the “Alkaline Phosphatase Increase - Index Value” was determined as 0 and the “Alkaline Phosphatase Increase - Number of Reports” value is recorded as under 4. In the data set on Hepatotoxicity [5], the “LDH Increase - Activity Score” value is listed as “Inactive”, the “LDH Increase - Index Value” is on record as 0 and the “LDH Increase - Number of Reports” value was under 4. Further, in the data set with Hepatotoxicity [6], the “SGOT Increase - Activity Score” value is given as “Inactive”, the “SGOT Increase - Index Value” turned out to be 0 and the “SGOT Increase - Number of Reports” value was under 4.

With `CCN(CC)CCNC(=O)c1cc(Cl)c(N)cc1OC` [METOCLOPRAMIDE], in the data set on Hepatotoxicity [1], the “SGPT Increase - Activity Score” value was “Inactive”, the “SGPT Increase - Index Value” amounted to 0 and the “SGPT Increase - Number of Reports” value was under 4. Moreover, in the data set on Hepatotoxicity [2], the “Composite Activity - Active” value is on record as 0, the “Composite Activity - Marginal” value is 0 and the “Composite Activity - Score” value was “Inactive”. Besides, in the data set with Hepatotoxicity [3], the “GGT Increase - Activity Score” value is reported as “Inactive”, the “GGT Increase - Index Value” worked out at 0 and the “GGT Increase - Number of Reports” value is given as under 4. Also, in the data set with Hepatotoxicity [4], the “Alkaline Phosphatase Increase - Activity Score” value is on record as “Inactive”, the “Alkaline Phosphatase Increase - Index Value” is given as “No Shipping Units” and the “Alkaline Phosphatase Increase - Number of Reports” value was under 4. For the same compound, in the data set with Hepatotoxicity [5], the “LDH Increase - Activity Score” value was “Inactive”, the “LDH Increase - Index Value” was determined as 0 and the “LDH Increase - Number of Reports” value is given as under 4. Besides, in the data set on Hepatotoxicity [6], the “SGOT Increase - Activity Score” value is listed as “Inactive”, the “SGOT Increase - Index Value” is 0 and the “SGOT Increase - Number of Reports” value was under 4.

As to `COCCc1ccc(OCC(O)CNC(C)C)cc1` (configuration not stated) [METOPROLOL], in the data set on Hepatotoxicity [1], the “SGPT Increase - Activity Score” value was “Inactive”, the “SGPT Increase - Index Value” worked out at 0.5 and the “SGPT Increase - Number of Reports” value is given as “>= 4”. Moreover, in the data set on Hepatotoxicity [2], the “Composite Activity - Active” value worked out at 0, the “Composite Activity - Marginal” value was determined as 0 and the “Composite Activity - Score” value was “Inactive”. In the data set with Hepatotoxicity [3], the “GGT Increase - Activity Score” value is given as “Inactive”, the “GGT Increase - Index Value” is reported as 0 and the “GGT Increase - Number of Reports” value is under 4. In the data set on Hepatotoxicity [4], the “Alkaline Phosphatase Increase - Activity Score” value is reported as “Inactive”, the “Alkaline Phosphatase Increase - Index Value” was 0.4 and the “Alkaline Phosphatase Increase - Number of Reports” value is “>= 4”. In addition, in the data set on Hepatotoxicity [5], the “LDH Increase - Activity Score” value is “Inactive”, the “LDH Increase - Index Value” came out at 0.3 and the “LDH Increase - Number of Reports” value is on record as under 4. For the same compound, in the data set with Hepatotoxicity [6], the “SGOT Increase - Activity Score” value is recorded as “Inactive”, the “SGOT Increase - Index Value” was determined as 0.5 and the “SGOT Increase - Number of Reports” value is “>= 4”.
